Here are results for nine molecules from US10336732B2, “1-heterocyclyl isochromanyl compounds and analogs for treating CNS disorders” (Sunovion Pharmaceuticals Inc., priority 2015, dated 2019).

For the assay, the system named is mice. In words: Neuropharmacological assay (SmartCube), behavioral signature of compound-treated mice. The assay is classed as in vivo. As to conditions: i.p. 15 min before behavioral test, most efficacious dose(s) of 3 doses. The essentials: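 Read-out is an automated video-based behavioral signature, scored as per-class probabilities (e.g., anxiolytic, antidepressant) against reference compounds. Dosing was i.p. at three doses, 15 min pre-test, in NMP, polyethylene glycol and propylene glycol. Values shown are from the most efficacious dose(s).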
For `Fc1ccc2c(c1)CCO[C@@H]2[C@H]1CCCN1` [Compound I-11, (R)-2-((S)-6-fluoroisochroman-1-yl)pyrrolidine], the “AD: ADHD (probability that behavioral signature matches class)” value (from here on “AD: ADHD”) was “+ (LOQ ≤ + <5%)”, the “AG: analgesic (probability that behavioral signature matches class)” value (shortened to “AG: analgesic”) was “++ (5% ≤ ++ <25%)”, the “AX: anxiolytic (probability that behavioral signature matches class)” value (“AX: anxiolytic” for short) is on record as “++ (5% ≤ ++ <25%)” and the “CE: cognitive enhancer (probability that behavioral signature matches class)” value (“CE: cognitive enhancer” for short) is “++ (5% ≤ ++ <25%)”. Besides, the “DP: anti-depressant (probability that behavioral signature matches class)” value (“DP: anti-depressant” for short) is “++ (5% ≤ ++ <25%)”, the “HA: hallucinogen (probability that behavioral signature matches class)” value (from here on “HA: hallucinogen”) is reported as “+ (LOQ ≤ + <5%)”, the “MS: mood stabilizer (probability that behavioral signature matches class)” value (shortened to “MS: mood stabilizer”) is “+ (LOQ ≤ + <5%)” and the “PS: anti-psychotic (probability that behavioral signature matches class)” value (shortened to “PS: anti-psychotic”) is on record as “+++ (25% ≤ +++ <50%)”. Also, the “SD: sedative hypnotic (probability that behavioral signature matches class)” value (from here on “SD: sedative hypnotic”) was “+ (LOQ ≤ + <5%)”, the “UN: uncharacterized CNS activity (probability that behavioral signature matches class)” value (“UN: uncharacterized CNS activity” below) is “++ (5% ≤ ++ <25%)” and the “XG: anxiogenic (probability that behavioral signature matches class)” value (from here on “XG: anxiogenic”) was “+ (LOQ ≤ + <5%)”.

For the molecule `Fc1ccc2c(c1)CCO[C@@H]2[C@@H]1CCCCN1` [Compound I-73, (S)-2-((S)-6-fluoroisochroman-1-yl)piperidine], the “AD: ADHD” value is “+ (LOQ ≤ + <5%)”, the “AG: analgesic” value is on record as “++ (5% ≤ ++ <25%)”, the “AX: anxiolytic” value is recorded as “++ (5% ≤ ++ <25%)” and the “CE: cognitive enhancer” value is given as “++ (5% ≤ ++ <25%)”. In addition, the “DP: anti-depressant” value is reported as “++ (5% ≤ ++ <25%)”, the “HA: hallucinogen” value is reported as “+ (LOQ ≤ + <5%)”, the “MS: mood stabilizer” value is “++ (5% ≤ ++ <25%)” and the “PS: anti-psychotic” value is “+ (LOQ ≤ + <5%)”. For the same molecule, the “SD: sedative hypnotic” value is “+ (LOQ ≤ + <5%)”, the “UN: uncharacterized CNS activity” value is listed as “+++ (25% ≤ +++ <50%)” and the “XG: anxiogenic” value is on record as “+ (LOQ ≤ + <5%)”.

In the case of `Fc1ccc2c(c1)[C@H](F)CO[C@H]2[C@@H]1CCCN1` [Compound I-137, (S)-2-((1R,4S)-4,6-difluoroisochroman-1-yl)pyrrolidine], the “AD: ADHD” value is given as “+ (LOQ ≤ + <5%)”, the “AG: analgesic” value is given as “++ (5% ≤ ++ <25%)”, the “AX: anxiolytic” value is reported as “++ (5% ≤ ++ <25%)” and the “CE: cognitive enhancer” value is reported as “++ (5% ≤ ++ <25%)”. Further, the “DP: anti-depressant” value is “++ (5% ≤ ++ <25%)”, the “HA: hallucinogen” value is recorded as “+ (LOQ ≤ + <5%)”, the “MS: mood stabilizer” value is “++ (5% ≤ ++ <25%)” and the “PS: anti-psychotic” value is reported as “++++ (50% ≤ ++++)”. The “SD: sedative hypnotic” value is “++ (5% ≤ ++ <25%)”, the “UN: uncharacterized CNS activity” value is reported as “++ (5% ≤ ++ <25%)” and the “XG: anxiogenic” value was “+ (LOQ ≤ + <5%)”.

In the case of `c1ccc2c(c1)CCO[C@H]2[C@@H]1CCN1` [Compound I-80, (S)-2-((R)-iso-chroman-1-yl)azetidine], the “AD: ADHD” value is recorded as “+ (LOQ ≤ + <5%)”, the “AG: analgesic” value was “++ (5% ≤ ++ <25%)”, the “AX: anxiolytic” value was “++ (5% ≤ ++ <25%)” and the “CE: cognitive enhancer” value was “++ (5% ≤ ++ <25%)”. For the same molecule, the “DP: anti-depressant” value was “+++ (25% ≤ +++ <50%)”, the “HA: hallucinogen” value is “+ (LOQ ≤ + <5%)”, the “MS: mood stabilizer” value was “++ (5% ≤ ++ <25%)” and the “PS: anti-psychotic” value was “++ (5% ≤ ++ <25%)”. The “SD: sedative hypnotic” value is recorded as “+ (LOQ ≤ + <5%)”, the “UN: uncharacterized CNS activity” value is reported as “+++ (25% ≤ +++ <50%)” and the “XG: anxiogenic” value was “+ (LOQ ≤ + <5%)”.

For the molecule `N#Cc1ccc2c(c1)CCO[C@@H]2[C@H]1CCCN1` [Compound I-46, (S)-1-((R)-pyrrolidin-2-yl)isochroman-6-carbonitrile], the “AD: ADHD” value is on record as “+ (LOQ ≤ + <5%)”, the “AG: analgesic” value is listed as “++ (5% ≤ ++ <25%)”, the “AX: anxiolytic” value is reported as “++ (5% ≤ ++ <25%)” and the “CE: cognitive enhancer” value is “++ (5% ≤ ++ <25%)”. The “DP: anti-depressant” value was “++ (5% ≤ ++ <25%)”, the “HA: hallucinogen” value is reported as “+ (LOQ ≤ + <5%)”, the “MS: mood stabilizer” value is on record as “+ (LOQ ≤ + <5%)” and the “PS: anti-psychotic” value is “++++ (50% ≤ ++++)”. For the same molecule, the “SD: sedative hypnotic” value is reported as “++ (5% ≤ ++ <25%)”, the “UN: uncharacterized CNS activity” value is reported as “+ (LOQ ≤ + <5%)” and the “XG: anxiogenic” value was “+ (LOQ ≤ + <5%)”.

For `Fc1cccc2c1[C@@H]([C@H]1CCCN1)OCC2` [Compound I-3, (R)-2-((S)-8-fluoroisochroman-1-yl)pyrrolidine], the “AD: ADHD” value is given as “+ (LOQ ≤ + <5%)”, the “AG: analgesic” value is “++ (5% ≤ ++ <25%)”, the “AX: anxiolytic” value is “++ (5% ≤ ++ <25%)” and the “CE: cognitive enhancer” value was “++ (5% ≤ ++ <25%)”. Besides, the “DP: anti-depressant” value is given as “+++ (25% ≤ +++ <50%)”, the “HA: hallucinogen” value was “+ (LOQ ≤ + <5%)”, the “MS: mood stabilizer” value was “++ (5% ≤ ++ <25%)” and the “PS: anti-psychotic” value is on record as “++ (5% ≤ ++ <25%)”. The “SD: sedative hypnotic” value is “++ (5% ≤ ++ <25%)”, the “UN: uncharacterized CNS activity” value is listed as “+++ (25% ≤ +++ <50%)” and the “XG: anxiogenic” value is reported as “+ (LOQ ≤ + <5%)”.

`c1ccc2c(c1)CCO[C@H]2[C@H]1CCCN1` [Compound I-19, (R)-2-((R)-isochroman-1-yl)pyrrolidine]: the “AD: ADHD” value is given as “+ (LOQ ≤ + <5%)”, the “AG: analgesic” value is “+ (LOQ ≤ + <5%)”, the “AX: anxiolytic” value is reported as “++ (5% ≤ ++ <25%)” and the “CE: cognitive enhancer” value is reported as “++ (5% ≤ ++ <25%)”. In addition, the “DP: anti-depressant” value was “+ (LOQ ≤ + <5%)”, the “HA: hallucinogen” value is listed as “+ (LOQ ≤ + <5%)”, the “MS: mood stabilizer” value is listed as “+ (LOQ ≤ + <5%)” and the “PS: anti-psychotic” value is on record as “++++ (50% ≤ ++++)”. Further, the “SD: sedative hypnotic” value is “+ (LOQ ≤ + <5%)”, the “UN: uncharacterized CNS activity” value was “++++ (50% ≤ ++++)” and the “XG: anxiogenic” value is reported as “+ (LOQ ≤ + <5%)”.

In the case of `Cc1cccc2c1[C@H]([C@H]1CCCN1)OCC2` [Compound I-23, (R)-2-((R)-8-methylisochroman-1-yl)pyrrolidine], the “AD: ADHD” value is recorded as “+ (LOQ ≤ + <5%)”, the “AG: analgesic” value was “+++ (25% ≤ +++ <50%)”, the “AX: anxiolytic” value is listed as “++ (5% ≤ ++ <25%)” and the “CE: cognitive enhancer” value was “++ (5% ≤ ++ <25%)”. The “DP: anti-depressant” value is given as “++ (5% ≤ ++ <25%)”, the “HA: hallucinogen” value is on record as “+ (LOQ ≤ + <5%)”, the “MS: mood stabilizer” value was “++ (5% ≤ ++ <25%)” and the “PS: anti-psychotic” value is “+++ (25% ≤ +++ <50%)”. For the same molecule, the “SD: sedative hypnotic” value was “++ (5% ≤ ++ <25%)”, the “UN: uncharacterized CNS activity” value is “+ (LOQ ≤ + <5%)” and the “XG: anxiogenic” value is “+ (LOQ ≤ + <5%)”.

On to `c1ccc2c(c1)CCO[C@H]2[C@@H]1CCCN1` [Compound I-18, (S)-2-((R)-isochroman-1-yl)pyrrolidine], for which the “AD: ADHD” value is recorded as “+ (LOQ ≤ + <5%)”, the “AG: analgesic” value is recorded as “++ (5% ≤ ++ <25%)”, the “AX: anxiolytic” value is listed as “+++ (25% ≤ +++ <50%)” and the “CE: cognitive enhancer” value is “++ (5% ≤ ++ <25%)”. For the same molecule, the “DP: anti-depressant” value was “++ (5% ≤ ++ <25%)”, the “HA: hallucinogen” value is “+ (LOQ ≤ + <5%)”, the “MS: mood stabilizer” value is “++ (5% ≤ ++ <25%)” and the “PS: anti-psychotic” value is reported as “+++ (25% ≤ +++ <50%)”. For the same molecule, the “SD: sedative hypnotic” value is “++ (5% ≤ ++ <25%)”, the “UN: uncharacterized CNS activity” value was “++ (5% ≤ ++ <25%)” and the “XG: anxiogenic” value is given as “+ (LOQ ≤ + <5%)”.
